Reference: patent US20260199464A1, “COMPOSITIONS AND METHODS FOR ENHANCING CAR-T CELL PERFORMANCE AND FOR CANCER IMMUNOTHERAPY” (The Regents of the University of California, priority 2022, published 2026)

Columns and labels:
MC38-GP33-41 tumors = assay: ZAA treatment of mice implanted with MC38-GP33-41 tumors, with or without CD8 T cell depletion; assay type: in vivo
Source text: (§1) For adoptive therapy experiments, 5×10^5 B16-GP33-41 cells or MC38-GP33-41, which were verified Mycoplasma negative by PCR, and authenticated by in vitro killing assays, were transplanted subcutaneously into the right flank of wild-type B6 mice. After tumors became palpable, 7-8 days after transplantation, in vitro activated and expanded P14 CD8 T cells were transferred intravenously. For comparison of TIL accumulation in a mixed transfer setting, naive P14 CD8 T cells were activated, transduced and expanded with 50 U/mL of hIL-2 for 2-3 days; cells transduced with control constructs (Cd19 shRNAmir) or experimental constructs (Srebf2 shRNAmir) were mixed 1:1 and 1×10^6 P14 cells were transferred intravenously. For efficacy studies, transduced cells were expanded for 5-6 days; transduced cells were then sorted, and 1×10^6-2.5×10^6 cells were transferred intravenously into mice with established MC38-GP33-41 or B16-GP33-41 tumors. Tumors were monitored daily, and mice with ulcerated tumors or tumors exceeding 400 mm^2 were euthanized, in accordance with Univ. Calif. San Diego (UCSD) Institutional Animal Care and Use Committee (IACUC).
At day 6 after tumor injection, the mice were randomized and treated every other day with ZAA (Santa Cruz Biotechnology) or vehicle control by alternating intravenous ([…]) and intraperitoneal ([…]) injections until day 16. For combination therapy with anti-PD1 (programmed cell death protein 1 (PD-1)) antibody, ZAA was administered with the same schedule, and three consecutive treatments of anti-PD1 (InVivoMab anti-mouse PD-1 (CD279), BioXCell, BE0033-2) at 200 μg/mouse were delivered IP on days 9, 10, and 11 after tumor injection. Isotype control for Syrian IgG was used (InVivoMAb polyclonal Syrian hamster IgG, BioXCell). […]

[1] = test system: B16-GP33-41 melanoma tumors; assay: ZAA combined with anti-PD-1 in B16-GP33-41 melanoma tumors; assay type: in vivo, mice; conditions: ZAA combined with anti-PD-1 treatment
Source text: as §1
At day 6 after tumor injection, the mice were randomized and treated every other day with ZAA (Santa Cruz Biotechnology) or vehicle control by alternating intravenous ([…]) and intraperitoneal ([…]) injections until day 16. […]

B16-F10 tumors = assay: ZAA combined with anti-PD1 antibody, B16-F10 tumors implanted s.c. in B6 mice (FIG. 7, FIG. 8); assay type: in vivo
Method: FIG. 7 graphically illustrates data showing that tumor Growth Curves in B16-F10 tumors implanted subcutaneously (s.c.) in B6 mice. Tumor-bearing mice were treated with a combination of Zaragozic Acid A and anti-PD1 antibody.
FIG. 8 graphically illustrates data showing that ZAA synergizes with anti-PD1 therapy. Tumor-bearing mice were treated with a combination of Zaragozic Acid A and anti-PD1 antibody.
At day 6 after tumor injection, the mice were randomized and treated every other day with ZAA (Santa Cruz Biotechnology) or vehicle control by alternating intravenous ([…]) and intraperitoneal ([…]) injections until day 16. For combination therapy with anti-PD1 (programmed cell death protein 1 (PD-1)) antibody, ZAA was administered with the same schedule, and three consecutive treatments of anti-PD1 (InVivoMab anti-mouse PD-1 (CD279), BioXCell, BE0033-2) at 200 μg/mouse were delivered IP on days 9, 10, and 11 after tumor injection. Isotype control for Syrian IgG was used (InVivoMAb polyclonal Syrian hamster IgG, BioXCell). For CD8-depleting experiments in combination with ZAA, anti-CD8a Ab (2.43 BioXCell) was administered intraperitoneally at a dose of 200 μg/mouse starting 2 days prior to tumor implantation for three consecutive days (−2, −1, 0), followed by 2 additional doses of 100 μg/mouse on days 4 and 8, and ZAA treatment scheduled was started at day 4 after tumor implantation. Isotype control for Rat IgG2 was used (InVivoMAb rat IgG2a isotype control, anti-trinitrophenol, BioXCell).

CD19 CAR T cell = assay: ZAA combined with CD19 CAR T cell treatment of established solid tumors (FIG. 9); assay type: in vivo, mice
Source text: FIG. 9 graphically illustrates data showing that ZAA can be combined with CAR T cell treatment of established solid tumors to increase the ability of CAR T cells to accumulate intratumorally. Tumor-bearing mice received tumor-specific CAR T cells in combination with Zaragozic Acid A. Tumor cells contained the surface protein CD19, which is recognized by the CAR anti-CD19 on the CD8 T cell (CD19 CAR T cell).

[2] = Dependence of antitumor actions of ZAA on the immune system (FIG. 6); assay type: in vivo
P14 CD8 T cells = assay type: in vivo, mice
[3] = ZAA vs vehicle, MC38-GP33-41 tumors
[4] = combination of Zaragozic Acid A and anti-PD1 antibody, B16-F10 s.c.

Compound	dependence of the antitumor effect on CD8 T cells (MC38-GP33-41 tumors; ZAA in combination with CD8 T cell depletion)	survival of mice (MC38-GP33-41 tumors; [3])	tumor growth (MC38-GP33-41 tumors; [3])	control of B16-GP33-41 melanoma tumors [1]	interaction with anti-PD1 therapy (B16-F10 tumors; FIG. 8, independent tumor growth curves from FIG. 7)	treatment of established tumors, efficacy of the combination (B16-F10 tumors; [4])	treatment of established tumors, safety of the combination (B16-F10 tumors; [4])	interaction with CD19 CAR T cell therapy (CD19 CAR T cell; FIG. 9)	ability of CAR T cells to accumulate intratumorally (CD19 CAR T cell; tumor-specific CD19 CAR T cells in combination with ZAA, CD19-bearing tumor cells)	antitumor actions, dependence on the immune system [2]	accumulation of P14 CD8 T cells responding to LCMV in the SI (P14 CD8 T cells; day 7 of infection, compared to the control group (vehicle))	SI TRM (P14 CD8 T cells; day 21 after LCMV infection)	accumulation of memory T cells in the spleen (P14 CD8 T cells; day 21 after LCMV infection)
C=C(CCC12O[C@H](C(=O)O)[C@@](O)(C(=O)O)C(C(=O)O)(O1)[C@H](OC(=O)/C=C/[C@@H](C)C[C@@H](C)CC)[C@H]2O)[C@@H](OC(C)=O)[C@H](C)Cc1ccccc1 (stereo partly shown) [ZAA, zaragozic acid A]	CD8-dependent	improved	reduced	greater control	synergizes	effectively	safely	synergizes	increase	depend on the immune system			
CC[C@H](C)C(=O)O[C@H]1C[C@@H](C)C=C2C=C[C@H](C)[C@H](CC[C@@H]3C[C@@H](O)CC(=O)O3)[C@H]21 [lovastatin]											impaired	sustained loss	impaired accumulation
